Test results reported in patent publication US6676946B2 (priority 1997, dated 2004).
Entries after “also recorded” stand apart in the source; their conditions may differ.

Columns and labels:
[1] = tested on: MLS 128 (IgG) anti-Tn monoclonal antibody; format: binding, mouse
[2] = tested on: MLS128 mAb; format: binding, mouse
[3] = tested on: Tn3G6K(Biot)G glycopeptide; set-up: species or system BALB/c mice; settings: mouse, in vivo
[4] = tested on: STTG6K(Biot)G peptide; set-up: species or system BALB/c mice; settings: mouse, in vivo
[5] = tested on: human Jurkat tumor cell line; settings: in vivo
[6] = tested on: T cell hybridoma 45G10 specific for PV; format: cell-based
[7] = tested on: T cell hybridomas 45G10 (specific for 103-115 poliovirus peptide); format: cell-based
[8] = tested on: lymph node (LN) cells; set-up: species or system BALB/c mice; settings: mouse, in vivo, sc
[9] = tested on: Tn antigen (BT-TT1); set-up: species or system BALB/c mice; settings: mouse, in vivo

Row | Substance | recognition of the Tn motif by the MLS 128 mAb, direct ELISA [1] | inhibition of MLS128 binding to Tn3G6K(Biot)G [2] | anti-Tn IgG antibodies [3] | sera binding to unglycosylated STTG6K(Biot)G peptide [4] | stimulation of the 45G10 T cell hybrid [6] | other results
1 | (S*T*T*G)2KLFAVWKITYKDT [Tn6-PV] | efficiently recognized | significant enhancement of the antigenicity | induced anti-Tn IgG antibodies | No sera binding was observed | stimulate | anti-Tn IgM antibodies [3]: detected; binding of sera to Jurkat cells [5]: bound this human cell line; recognition of Jurkat cells / antibody production relative to Tn3-PV [5]: better; also recorded: significant benefit; increase of antigenicity of the T cell epitope compared to unglycosylated PV peptide [6]: ~100 fold
2 | KLFAVWKITYKDT [PV, reference compound] | are not | – | no Tn specific antibodies were detected | No sera binding was observed | stimulate | recognition by PV-specific T-cell hybridoma [7]: recognize; proliferative T response specific for the T epitope [8]: induce in vivo a proliferative T response; induction of anti-Tn antibodies [9]: not
3 | S*T*T*QYIKANSKIGITEL [Tn3-TT] | efficiently recognized | only slightly affected | – | – | – | –
4 | STTGGGGGGKG [STTG6KG, reference compound] | – | – | – | – | – | competition with a-OSM for MLS 128 binding [2]: does not
5 | αGalNac-Ser [B] | – | – | – | – | – | stimulation of IL-2 production by the T hybridoma [7]: do not stimulate
